The text below walks through data of ChEMBL document CHEMBL3400031, “Histone H3 peptide based LSD1-selective inhibitors” (Bioorg Med Chem Lett, 2015).

Numbered stars: 1 amine (or outer) side, 2 acyl side, 3 side chain; on linkers, the order of the positions; unused ones are H or OH. Square brackets hold non-standard residues; d marks the D form. Peptide text beside a SMILES is read from it. X1 = O=C([C@H](CCCCNC1CC1c1ccccc1)N[*:1])[*:2]

For experiment [1], the target named is T1, Amine oxidase [flavin-containing] A (Homo sapiens, UniProt P21397).
T1 sequence (P21397 whole entry): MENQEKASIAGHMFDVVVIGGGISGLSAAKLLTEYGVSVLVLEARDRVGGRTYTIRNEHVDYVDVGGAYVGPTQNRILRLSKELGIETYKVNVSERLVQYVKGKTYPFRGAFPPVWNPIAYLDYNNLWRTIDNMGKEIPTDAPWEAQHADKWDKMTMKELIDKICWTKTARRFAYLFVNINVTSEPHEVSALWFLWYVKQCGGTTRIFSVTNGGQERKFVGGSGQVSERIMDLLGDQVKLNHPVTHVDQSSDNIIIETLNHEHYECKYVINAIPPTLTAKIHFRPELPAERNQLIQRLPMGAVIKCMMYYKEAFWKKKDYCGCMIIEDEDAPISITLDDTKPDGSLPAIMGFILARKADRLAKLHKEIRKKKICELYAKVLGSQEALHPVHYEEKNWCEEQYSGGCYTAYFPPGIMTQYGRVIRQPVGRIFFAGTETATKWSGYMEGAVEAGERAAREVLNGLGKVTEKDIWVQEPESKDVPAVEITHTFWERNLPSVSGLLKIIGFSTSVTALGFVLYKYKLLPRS
Briefly: Inhibition of human MAOA using (4S)-4,5-dihydro-2-(6-hydroxybenzothiazolyl)-4-thiazolecarboxylic acid substrate incubated for 60 mins by luciferin detection based chemiluminescence assay.

Experiment [2] concerns the target T2, Amine oxidase [flavin-containing] B (Homo sapiens, UniProt P27338).
T2 sequence (P27338 whole entry): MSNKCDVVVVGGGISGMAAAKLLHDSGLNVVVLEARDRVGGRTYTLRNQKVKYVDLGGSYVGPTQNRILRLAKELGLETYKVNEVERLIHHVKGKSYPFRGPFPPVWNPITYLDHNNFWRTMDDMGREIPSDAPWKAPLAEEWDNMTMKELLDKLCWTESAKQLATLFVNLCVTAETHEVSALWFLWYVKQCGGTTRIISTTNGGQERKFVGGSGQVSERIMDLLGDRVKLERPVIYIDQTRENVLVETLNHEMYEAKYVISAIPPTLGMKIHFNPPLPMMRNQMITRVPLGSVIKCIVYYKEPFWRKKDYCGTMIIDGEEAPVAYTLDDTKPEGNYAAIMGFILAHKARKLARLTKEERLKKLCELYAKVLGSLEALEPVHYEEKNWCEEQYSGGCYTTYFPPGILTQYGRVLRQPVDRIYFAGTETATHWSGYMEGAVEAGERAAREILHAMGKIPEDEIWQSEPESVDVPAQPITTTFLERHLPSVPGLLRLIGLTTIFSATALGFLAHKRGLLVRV
Briefly: Inhibition of human MAOB using (4S)-4,5-dihydro-2-(6-hydroxybenzothiazolyl)-4-thiazolecarboxylic acid substrate incubated for 60 mins by luciferin detection based chemiluminescence assay.

The target in experiment [3] is Lysine-specific histone demethylase 1A (Homo sapiens, UniProt O60341). Kind of experiment: Inhibition of human recombinant LSD1 assessed as effect on H2O2 production incubated for 30 mins using methylated peptide substrate, Amplex red reagent and peroxidase by fluorimetry.

As to `C[C@H](N)C(=O)N[C@@H](CCCNC(=N)N)C(=O)N[C@H](C(=O)N[C@@H](CCCCNC1CC1c1ccccc1)C(=O)N[C@@H](CCC(N)=O)C(=O)N[C@H](C(=O)N[C@@H](C)C(=O)N[C@@H](CCCNC(=N)N)C(=O)N[C@@H](CCCCN)C(=O)N[C@@H](CO)C(=O)N[C@H](C(=O)NCC(=O)NCC(=O)O)[C@@H](C)O)[C@@H](C)O)[C@@H](C)O` (some centres undefined), the concentration for half-maximal inhibition (IC50) in experiment [1] and in experiment [2] was greater than 100 µM in each case.
In the case of `C[C@H](N)C(=O)N[C@@H](CCCNC(=N)N)C(=O)N[C@H](C(=O)N[C@@H](CCCCNC1CC1c1ccccc1)C(=O)N[C@@H](CCC(N)=O)C(=O)N[C@H](C(=O)N[C@@H](C)C(=O)N[C@@H](CCCNC(=N)N)C(=O)N[C@@H](CCCCN)C(=O)O)[C@@H](C)O)[C@@H](C)O` (some centres undefined), the half-maximal inhibitory concentration (IC50) in experiment [1] and in experiment [2] was greater than 100 µM each time.
Turning to `C[C@H](N)C(=O)N[C@@H](CCCNC(=N)N)C(=O)N[C@H](C(=O)N[C@@H](CCCCNC1CC1c1ccccc1)C(=O)N[C@@H](CCC(N)=O)C(=O)O)[C@@H](C)O` (some centres undefined) (H-ART[X1]Q-OH), the results for the IC50 in experiment [3], in experiment [1] and in experiment [2] were greater than 10 µM, greater than 100 µM and greater than 100 µM, respectively.
Consider `C[C@H](N)C(=O)N[C@@H](CCCNC(=N)N)C(=O)N[C@H](C(=O)N[C@@H](CCCCNC1CC1c1ccccc1)C(=O)N[C@@H](CCC(N)=O)C(=O)N[C@H](C(=O)N[C@@H](C)C(=O)N[C@@H](CCCNC(=N)N)C(=O)N[C@@H](CCCCN)C(=O)N[C@@H](CO)C(=O)N[C@H](C(=O)NCC(=O)NCC(=O)N[C@@H](CCCCN)C(=O)N[C@@H](C)C(=O)N1CCC[C@H]1C(=O)N[C@@H](CCCNC(=N)N)C(=O)O)[C@@H](C)O)[C@@H](C)O)[C@@H](C)O` (some centres undefined) (H-ART[X1]QTARKSTGGKAPR-OH), for which the IC50 in experiment [1] and in experiment [2] was greater than 100 µM each time.
